One data set relates to skin cancer. As to the kind of experiment: Prevention of skin cancer in UV-irradiated guinea pigs. The following applies: highly concentrated solution brushed on shaved neck; for cancer cells in tissue samples after two weeks of UV irradiation: UV-A, UV-B, UV-C at least two hours per day. The data set is classed as in vivo. An excerpt: Use of 1-(aminoalkyl)-3-quinoxaline-2-on derivatives for preventing skin cancer in guinea pigs.
A group of six guinea pigs was shaved in the neck region and exposed to intensive UV irradiation over a period of at least two hours per day. The UV irradiation contained portions of both UV-A and UV-B and UV-C rays. A highly concentrated solution of Caroverine.hydrochloride was brushed on the shaved neck regions of four of the six guinea pigs prior to the commencement of the first irradation, wherein attention was paid to that the distribution was effected as uniform as possible and over all of the irradiated zone.

The conditions of data set [1]: human, in vivo.
In the next data set the test system is HIV. As to the kind of experiment: HIV replication in macrophages derived from monocytes. The data set is classed as cell-based.
The test system of a further data set is nerve cells. As to the kind of experiment: In vitro tests for neuroregenerative effect. Format: cell-based. The following applies: low dosages, dosages known from the literature.
The subject of a further data set is auditory nerve. Put plainly: Sound audiogram in patients with severe sudden loss of hearing / cochlear implant. The data set is classed as in vivo, human. The procedure: By way of clinical examples, the efficacy of Caroverine (1-diethylaminoethyl-3-(p-methoxybenzyl)-1,2-dihydroquinoxaline-2-on) as a neuroregenerative substance was tested in two patients suffering from a severe sudden loss of hearing. In the enclosed diagram of FIG. 1, the sound audiogram of a patient is shown, the dot-and-dash line illustrating the sound audiogram after a sudden loss of hearing, the broken line illustrating the sound audiogram immediately upon commencement of the treatment, and the full line illustrating the patient's sound audiogram two weeks after the beginning of treatment, the patient over that period having been treated by the administration of an elevated dose of Caroverine. 240 mg Caroverine dissolved in 250 ml physiological saline were each slowly administered intravenously three times a day. […] A cochlear implant was not inserted.

A short description of data set [2]: Treatment of patients suffering from Alzheimer's disease. Format: in vivo, human. The note with it: three weeks. An excerpt:
By way of two male patients aged between 70 and 75 and suffering from Alzheimer's disease, the effect of Caroverine as a neuroregenerative substance was further investigated. The patients had average body weights of 75 kg and were in-patients. […] The time of treatment in each case was maintained for three weeks.

Data set [3] is described as follows: Treatment of patients suffering from periodic schizophrenia. Format: in vivo, human. The procedure: 4 patients, two female and two male patients, aged between 40 and 50 and suffering from periodic schizophrenia were treated with elevated doses of Caroverine during massive attacks. […] The treatment time was 7 days, 14 days and 21 days, respectively.
The subject of the next data set is facial nerve. Put plainly: Treatment of patients suffering from facial nerve paralysis. Format: in vivo, human. As to the method: The neuroregenerative action of Caroverine was further investigated by way of two patients suffering from facial nerve paralysis. Two female patients suffering from a serious paralysis of the […] nerve were treated with Caroverine in the form of a combined cure over a period of 4 weeks, wherein, on the one hand, Caroverine was applied three times a day by intravenously administering 360 mg Caroverine each and the active substance, in addition, was administered in the form of a depot plaster containing 1000 mg Caroverine. The depot plaster was replaced once a week.

The nature of data set [4]: Speech and articulation capacity of a patient after a stroke. The data set is classed as in vivo, human. The note with it: 4×160 mg i.v. per day, 3 months, approximately 50% at beginning of treatment. As to the method:
A patient suffering from serious speech impediments due to a stroke was intravenously administered Caroverine over a period of 3 months at an elevated dose of 4×160 mg Caroverine in physiological saline per day.

A short description of data set [5]: ABTA cation radical formation and reduction, photometric at 420 nm. Format: biochemical. The procedure: (§1) In respect of the antioxidative effect of 1-(aminoalkyl)-3-quinoxaline-2-on derivatives and in respect of their radical interceptor properties, in vitro tests were carried out with Caroverine and the specific radical intercepting reagent 2,2′-azino-bis(3-ethylbenz)thiazoline-6-sulfonic acid (ABTA) in order to compare the radical interceptor property of Caroverine with that of ABTA. In the presence of highly reactive radicals, ABTA is oxidized to the stable thiazoline cation radical ABTA^+. The intensive green color of that radical was photometrically measured with a main absorption band at 420 nm. […] Caroverine reacted rapidly with free hydroxyl, peroxyl and ABTA cation radicals, as was shown in comparative studies with ABTA in the absence and in the presence of cerebral homogenate. The rate constant for the reaction with hydroxyl radicals was 0.4×10^10 M/l/s and that for peroxyl radicals was 0.5×10^10 M/l/s, as was realized by comparative kinetic studies with ABTA in the absence or in the presence of cerebral homogenate (FIG. 6). […] In doing so, ABTA cation radical formation and reduction were applied, as already mentioned, in order to examine the single electron transfer reactions, since that substance enables direct measurements of radical formation and radical reduction on account of its color.

Data set [6] in a line: Comparative kinetic studies with ABTA, hydroxyl radicals. The following applies: absence or presence of cerebral homogenate. Format: biochemical. As to the method: as §1
Data set [7] in a line: Comparative kinetic studies with ABTA, peroxyl radicals. Format: biochemical. The note with it: absence or presence of cerebral homogenate. As to the method: as §1
Data set [8] can be described thus: Comparative studies of antioxidant and radical interceptor property. The data set is classed as biochemical. The text has this: wherein R is hydroxy, methoxy, ethoxy or hydrogen, or pharmaceutically acceptable salts thereof, for the preparation of compositions acting as antioxidants for preventing or treating diseases caused by free radicals of the oxygen cell metabolism, for stimulating the growth of nerve cells, antagonizing glutamate receptors and/or stimulating the growth of, in particular glutamatergic, nerve cells. […] Moreover, it has been shown in a surprising manner that specific 1-(aminoalkyl)-3-quinoxaline-2-on derivatives and, in particular, Caroverine are capable of antagonizing metabotropic glutamate receptors. Since glutamate receptors and, in particular, metabotropic glutamate receptors have been recognized as promoters or catalysts of intracellular metabolism, Caroverine and other 1-(aminoalkyl)-3-quinoxaline-2-on derivatives are capable of antagonizing, i.e., markedly retarding, in particular, that intracellular metabolism.
For that reason, Caroverine is supposed to be able to facilitate the repair of long-lived organic radicals and damaged biomolecules.

Data set [9] can be described thus: Treatment of patients suffering from type I allergy (hay fever). The data set is classed as in vivo, human. The note with it: 5 hay fever patients, tablet 150 mg three times a day. The procedure: 5 patients, 2 female and 3 male patients, suffering from type I allergy, namely hay fever, were treated with Caroverine at the occurrence of allergical primary reactions, i.e., sneezing, cervical irritations as well as rhinorrhea. They each received one tablet containing 150 mg Caroverine three times a day.
For comparative reasons, two patients were treated with usual antihistamines, wherein both the primary manifestations of the allergy and, in particular, the secondary manifestations could not be suppressed immediately and completely such that the patients were suffering from their disease hay fever substantially as long as straining by the causers, namely grass pollens, was maintained. Nor was it possible to discontinue the administration of the medicament as long as pollen flight was observed.

For data set [10], the system named is metabotropic group I glutamate receptors. Put plainly: Antagonism of metabotropic group I glutamate receptors in the ear of guinea pigs (behavior, ear electrodes). The data set is classed as in vivo. The following applies: 8 mg/kg into the vein of the ear. As to the method:
Use of 1-(aminoalkyl)-3-quinoxaline-2-on derivatives as antagonists of the metabotropic group I glutamate receptors in the ear of guinea pigs.
A group of six guinea pigs was injected hydroxyphenyl glycerin as a receptor agonist into the ear, the receptor responding in a manner so as to strongly increase the auditory performance of the guinea pigs. […] Four of the six guinea pigs were subsequently injected a dose of 8 mg/kg body weight of the guinea pig into the vein of the ear and the behavior of the guinea pigs was observed. […] These behavioral peculiarities of the guinea pigs were also observed by applying electrodes to the ears of the animals, from whose measured data it could be readily read whether the exposure of the animals to unexpected noises caused excitement or not.

For data set [11] the test system is unchanged. Put plainly: Microelectrodes on the auditory nerve of the narcotized animal. Format: in vivo, guinea pigs. The text has this:
Furthermore, the inhibiting influence of Caroverine on the metabotropic group I glutamate receptors was investigated on the narcotized animal by applying microelectrodes to the auditory nerve.

Another data set concerns carcinoma of the colon. Put plainly: Patients with carcinoma of the colon, added to chemotherapy. Format: in vivo, human. The note with it: three patients; with Irinothekam and Oxaliplatine; day 1 i.v., other days 3×3 tablets a day. The text has this: Three patients aged between 19 and 75 and suffering from carcinoma of the colon were additionally administered Caroverine beside the usual chemotherapy with Irinothekam and Oxaliplatine for the four-week period of chemotherapy, the administration on day 1 having been effected at an elevated dose, i.e., intravenously in physiological saline, and on the other days by administering 3×3 tablets a day.

Data set [12] deals with advanced head and throat tumors. As to the kind of experiment: Patients with advanced head and throat tumors, added to chemotherapy. The note with it: beside the regular chemotherapy. The data set is classed as in vivo, human.
A further data set deals with Ca2+ ion flux into cells. The note with it: as stated in EP-A 0 032 564; cited from earlier work.

In the case of `CCN(CC)CCn1c(=O)c(Cc2ccc(O)cc2)nc2ccccc21` [1-diethylaminoethyl-3-(p-hydroxybenzyl)-1,2-dihydroquinoxaline-2-on], in the data set on skin cancer, the “cancer cells in tissue samples after two weeks of UV irradiation” value is on record as “identical result”. Moreover, the “harmful side effects on the assayed cells” value with assayed cells is listed as “without harmful side effects”. In data set [1], the “harmful side effects in test animals and patients” value is “without harmful side effects”.
`CCN(CC)CCn1c(=O)c(Cc2ccc(OC)cc2)nc2ccccc21` [Caroverine, 1-diethylaminoethyl-3-(p-methoxybenzyl)-1,2-dihydroquinoxaline-2-on]: the “replication of HIV in macrophages derived from monocytes” value in the data set with HIV is “markedly reduced”. The neuroregenerative effect entry in the data set with nerve cells was “no neuroregenerative effect”. In addition, the “improvement of hearing performance (sound audiogram, FIG. 2), low doses” value in the data set on auditory nerve (patient, 160 mg three times a day) is “little significant”. Further, the “hearing performance (sound audiogram, FIG. 1)” value with auditory nerve (patient, 240 mg in 250 ml saline i.v. three times a day, two weeks) was “marked increase in the hearing performance”. Also, the “hearing performance 0.125 to 2 kHz (sound audiogram, FIG. 2), high doses plus cochlear implant” value with auditory nerve (patient, 240 mg/250 ml saline four times a day, two weeks, cochlear implant inserted) is on record as “nearly corresponds to the hearing performance of a healthy individual”. Further, in the data set with auditory nerve (patient, 300 mg in 500 ml saline each day, two weeks, no cochlear implant), the “hearing performance 0.250 to 8 kH (sound audiogram, FIG. 3)” value is “essentially corresponds to the hearing performance of a healthy individual”. Besides, in the data set with auditory nerve (simultaneous administration with cochlear implant), the “audition of patients carrying cochlear implants” value was “clearly enhancing the audition”. In addition, the “condition of Alzheimer patients, lower dose” value in data set [2] (160 mg in 250 ml saline i.v. three times a day) was “not as pronounced and sustained”. Also, in data set [2] (two male patients, 400 mg infusion three times a day), the “condition of Alzheimer patients at end of treatment” value is reported as “marked improvement in the conditions”. Also, the “persistence of the improvement beyond the treatment time” value in data set [3] (400 mg infusion three times a day, 7, 14 or 21 days) was “only that patient whose treatment time was 21 days was successful even beyond the treatment time”. The “behavior of schizophrenia patients during treatment” value in [3] (4 patients, 400 mg infusion three times a day, 7, 14 or 21 days) is on record as “marked improvements in their behaviors”. Moreover, in data set [3] (daily dose 240 mg or 400 mg Caroverine in combination with 10 mg Haloperidole), the “behavior of schizophrenia patients, combination with Haloperidole” value is “results analogous to those of the higher-dose administration of Caroverine”. The “serious side effects usual with psychopharmacological agents (apathetic conditions, weight gains)” value in data set [3] (schizophrenia patients) was “could be avoided”. Moreover, in the data set on facial nerve (same regimen, extended period), the “signs of facial paralysis on further extension of treatment” value is given as “additional reductions of the paralytical signs”. Moreover, the “signs of facial paralysis after 2 weeks” value with facial nerve (two female patients, 360 mg i.v. three times a day plus depot plaster 1000 mg weekly) is listed as “improvement in the signs of paralysis”. Also, in [4], the “articulation capacity after the end of treatment (FIG. 4)” value was 100%. Besides, the “formation of the ABTA cation radical due to hydroxyl and peroxyl radicals (FIG. 5)” value in data set [5] (in the absence and in the presence of cerebral homogenate) is on record as “able to inhibit the formation of the ABTA cation radical”. Besides, the “ABTA cation radical reduction” value in data set [5] (in the presence and in the absence of cerebral homogenate) was “catalyzes ABTA cation radical reduction”. In addition, the “activity as an electron donor” value in data set [5] (low, micromolar concentrations) was “highly active as an electron donor”. In addition, in data set [6], the “rate constant for the reaction with hydroxyl radicals (FIG. 6)” value is listed as 0.4×10^10 M/l/s. Further, the “rate constant for the reaction with peroxyl radicals (FIG. 6)” value in [7] is recorded as 0.5×10^10 M/l/s. In addition, in data set [8], the “effectiveness relative to the known antioxidants Ascorbate, Trolox and Glutathione” value was “at least three times as effective”; the “radical interceptor property relative to Melatonine” value is listed as “reach that of Melatonine”. Moreover, the “secondary manifestations of the allergic reactions (cervical rubor and the like)” value in data set [9] is reported as “could be avoided”. Also, the “primary reactions (sneezing, rhinorrhea and the like)” value in data set [9] (after two-day administration) is “completely disappeared”. Besides, in data set [10], the “excitement upon unexpected noises, measured data of ear electrodes” value was “excitement was effected not at all or only to an extremely slight extent”. Besides, the “behavior of guinea pigs upon noise after receptor agonist hydroxyphenyl glycerin” value in [10] (four of six guinea pigs) is “calmed down immediately”. For the same compound, the “excitability of the metabotropic group I glutamate receptors” value in data set [11] is “strongly suppressed”. For the same compound, in the data set with carcinoma of the colon, the “colon carcinoma after four-week chemotherapy plus Caroverine” value was “complete disappearance of the colon carcinoma”. In addition, in [12], the “complete disappearance of head and throat tumors” value is listed as “No complete disappearance of the tumors was feasible”; the “tumor size, head and throat tumors” value was “reduction of the tumor size”. In the data set on assayed cells, the “harmful side effects on the assayed cells” value is given as “without harmful side effects”. The “harmful side effects in test animals and patients” value in [1] is recorded as “without harmful side effects”. For the same compound, in the data set on Ca2+ ion flux into cells, the “inhibition of the Ca2+ ion flux into cells” value is listed as “up to 50%”.
Consider `CCN(CC)CCn1c(=O)c(Cc2ccc(OC)cc2)nc2ccccc21.Cl` [Caroverine.hydrochloride], for which, in the data set with skin cancer, the “skin injuries after two weeks of UV irradiation” value is recorded as “some reddening of the skin” and the “cancer cells in tissue samples after two weeks of UV irradiation” value is recorded as “no cancer cells could be detected”.

Values taken from patent US20010006966A1, “Use of 1- (aminoalkyl) -3-quinoxaline-2-on derivatives for the preparation of compounds having an antioxidant action” (priority 1998, published 2001).
